Results: patent publication US10857105B2, “Compounds and compositions for intracellular delivery of therapeutic agents” (ModernaTX, Inc., priority 2017, dated 2020)

Experiments:
[1] = Particle size and polydispersity index of nanoparticle compositions (Zetasizer Nano ZS); format: physicochemical
Method in brief: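 Formulations of ionizable lipid, DSPC, cholesterol and PEG-DMG (50:10:38.5:1.5 mol %) carrying Luc or hEPO mRNA with all uridines as N1-methyl pseudouridine. Dynamic light scattering in 1×PBS gave particle size and polydispersity; zeta potential read in 15 mM PBS.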

modified luciferase = experiment: Luciferase expression in liver, lung, spleen and femur 6 hours after intravenous administration to mice; format: in vivo; conditions: 6 hours after intravenous 0.5 mpk, mice
Method in brief: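 Mice (n=3) got a single 0.5 mpk IV dose of each nanoparticle composition, with MC3 and PBS controls alongside. Organ luminescence flux was read 6 h post-dose.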

[2] = Encapsulation efficiency of RNA in nanoparticle compositions (RIBOGREEN assay); format: physicochemical
Method in brief: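 Lipid nanoparticles (ionisable lipid:DSPC:cholesterol:PEG-DMG 50:10:38.5:1.5 mol %) carrying N1-methylpseudouridine luciferase or hEPO mRNA diluted to about 5 μg/mL in TE, pH 7.5, with or without 2% Triton X-100, 15 min at 37° C. RiboGreen fluorescence (ex ~480, em ~520 nm) blank-subtracted; free RNA = intact/disrupted signal.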

luciferase (Luc) mRNA [3] = experiment: Luciferase expression after intramuscular administration to mice; format: in vivo; conditions: for Total flux 6 hours after intramuscular administration, 0.01 mpk Dose: Luc mRNA; for Total flux 6 hours after intramuscular administration, 0.01 mpk Dose / Novel lipid/MC3 expression ratio, i.m. Luc: intramuscular; for Novel lipid/MC3 expression ratio, i.m. Luc: 6 hr. time point, relative to MC3 formulation
Excerpt: The numbers 1-7 in this figure correspond to MC3, Compounds 168-170, and 173-175 respectively.
FIGS. 18A and 18B show the results of luciferase expression measured upon intramuscular administration of various nanoparticle compositions to CD-1 mice at 0.01 mpk. FIG. 18A is a bar graph showing total flux at 6 hr after administration. The numbers above each bar indicate the expression ratio relative to MC3. […] Numbers 1-11 in the Figures refer to compositions containing the following: 1: MC3, 2: Compound 143, 3: Compound 49; 4: Compound 113; 5: Compound 61; 6: Compound 72; 7: Compound 75; 8: Compound 71; 9: Compound 128; 10: Compound 156; 11: Compound 157.
The numbers 1-9 in this figure correspond to MC3, and Compounds 178, 181, 182, 218, 198, 200, 233, and 239, respectively.
The total flux (measured by area under the curve, AUC) induced by administration of a formulation including a given lipid relative to that induced by administration of a formulation including MC3 was also measured for several lipids.
Sample formulations including modified luciferase (Luc) mRNA prepared and administered intramuscularly and the resulting expression and immunogenicity were evaluated simultaneously. Formulations including compounds according to Formula (I), (IA), (IB), (II), (IIa), (IIb), (IIc), (IId), (IIe), (IIf), (IIg), or (III) were prepared and administered at dose of and 0.01 mpk.

IL-6, IP-10 = experiment: Cytokine induction (IL-6, IP-10) in mice 6 hours after intravenous administration; format: in vivo; set-up: unit not given here; conditions: intravenous 0.5 mpk
Excerpt: The introduction of foreign material into a mammalian body induces an innate immune response that promotes cytokine production. Such immune responses to, for example, nanoparticle compositions including therapeutic and/or prophylactics, are undesirable. The induction of certain cytokines is thus measured to evaluate the […] of nanoparticle compositions. The concentrations of various cytokines in mice upon intravenous administration of nanoparticle compositions presented in Table 1A at a dosage of 0.5 mpk was measured at 6 hours. The standard MC3 formulation and a PBS control were also tested. As is evident in Table 7, IL-6 induction was highest for compositions including Compounds 1, 3, 9, 19, and 26, while IP-10 induction was highest for compositions including Compounds 3, 4, 7, 20, and 26. IL-6 induction was lowest for compositions including Compounds 4, 11, 12, and 28. IP-10 induction was lowest for compositions including Compounds 10, 11, 12, 13, 15, 17, and 18.

luciferase (Luc) mRNA [4] = experiment: Luciferase expression (whole body bioluminescence) after intravenous administration to mice; format: in vivo; conditions: intravenous, luciferase, 6 hr. time point, relative to MC3 formulation
Method in brief: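 Luc mRNA nanoparticles were given IV at 0.5 mg/kg to groups of six mice, and whole-body bioluminescent flux was imaged 3, 6 and 24 h post-dose. Flux AUC for each lipid formulation was reported as a ratio to the MC3 reference formulation.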

hEPO mRNA = experiment: hEPO expression after intravenous administration to rats; format: in vivo, rat; conditions: Table 19B; for [hEPO] Lipid/MC3: ratio to MC3
Experimental: The expression of hEPO and cytokine induction in rats intravenously administered a nanoparticle composition at a dose of 2.0 mpk was measured at 6 h.
The expression of hEPO in rats intravenously administered a nanoparticle composition at a dose of 0.2 mpk or 2.0 mpk was measured at 6 hours. Table 16 summarize the ratio of hEPO expression levels using various nanoparticle compositions as compared to the hEPO expression level using MC3 formulation and the lipid levels in the liver measured 48 hours after administration, as described above. Tables 17 and 18 summarize the lipid levels in the liver and spleen measured 48 hours after administration of Compounds 28, 33, 53, and 54. Liver and spleen levels represent the average values calculated for 3 rats in each group. As is shown in Tables 17 and 18, less than 10% of Compounds 28, 33, 53, and 54 remained in the liver after 48 hours, while greater than 60% of MC3 remained.
Table 19A summarizes the hEPO expression, IP-10 induction, liver and spleen levels, and alanine aminotransferase (ALT) and aspartate aminotransferase (AST) measured upon intravenous administration of formulations including Compounds 48, 49, and 50 to rat at 0.2 and 2 mpk and hEPO mRNA. hEPO concentrations were measured 6 hours after administration, while cytokine induction and liver and spleen levels were measured 48 hours after administration. hEPO and IP-10 concentrations are presented in pg/ml, while liver levels are provided in ng/g. ALT and AST levels are presented in international units.
The expression of hEPO induced by intravenous administration to rats of nanoparticle compositions at various doses was measured at 2, 4, 6, 8, 24, and 48 hour time points. FIGS. 3-6 respectively summarize the hEPO expression measured upon intravenous administration of formulations including Compounds 26, 18, 25, and MC3 to rat at various doses. The lipid levels of Compound 26 in the liver after 48 hours were about 19%.
The expression of hEPO and lipid levels in the liver and spleen in rats intravenously administered a nanoparticle composition at a dose of 0.2 mpk was measured at various time points. Compounds 18 and 25 were selected for comparison with MC3. Lipids were formulated according to the standard MC3 formulation described above. Rats were administered intravenously a single 0.2 mpk dose and expression monitored at 0.25, 0.5, 1, 2, 4, 8, 24, and 48 hours after administration.

[5] = Table 1A, lipid:DSPC:cholesterol:PEG-DMG 50:10:38.5:1.5 mol %
[6] = Table 1B, formulated with hEPO mRNA
[7] = Table 1D, compositions for subcutaneous administration, # formulated with hEPO mRNA
[8] = Table 1E, compositions for subcutaneous administration

| Compound | Size [1, 5] | Size [1, 6] | EE [2, 6] | EE [2, 5] | Total Flux, Liver (modified luciferase) | Total Flux, Lung (modified luciferase) | Total Flux, Spleen (modified luciferase) | Total flux 6 hours after intramuscular administration, 0.01 mpk Dose (luciferase (Luc) mRNA [3]) | other results |
| --- | --- | --- | --- | --- | --- | --- | --- | --- | --- |
| CCCC/C=C\CCC(CC/C=C\CCCC)OC(=O)CCCCCCCN(CCO)CCCCCCCC(=O)OCCCCCCCCC [Compound 60, (5Z,12Z)-Heptadeca-5,12-dien-9-yl 8-((2-hydroxyethyl)(8-(nonyloxy)-8-oxooctyl)amino)octanoate] | 95.1 nm | 88.9 nm | 95.20% |  | 1.54E+09 | 6.25E+06 | 7.12E+06 | 9.48E+07 p/s | Size [1, 7]: 87.4 nm; Size [1, 8]: 93.3 nm |
| CCCC/C=C\CCC(CC/C=C\CCCC)OC(=O)CCCCCCCN(CCO)CCCCCC(=O)OCCCCCCCCCCC [Compound 61, (5Z,12Z)-heptadeca-5,12-dien-9-yl 8-((2-hydroxyethyl)(6-oxo-6-(undecyloxy)hexyl)amino)octanoate] | 82.1 nm |  |  |  | 6.37E+08 | 3.56E+06 | 1.61E+07 |  | Size [1, 8]: 80.0 nm; AUC (luciferase (Luc) mRNA [3]; luciferase, intramuscular administration (Table 3H)): 2.30E+09 p/s*h |
| CCCCCCCCCOC(=O)CCCCCCCN(CCCCCCCC(=O)OC(CCCCCCCC)CCCCCCCC)CCCn1ccc(=O)[nH]c1=O [Compound 114, Heptadecan-9-yl 8-((3-(2,4-dioxo-3,4-dihydropyrimidin-1(2H)-yl)propyl)(8-(nonyloxy)-8-oxooctyl)amino)octanoate] | 65.1 nm |  |  |  |  |  |  | 3.31E+06 p/s |  |
| CCCCCCCCCOC(=O)CCCCCCCN(CCCN)CCCCCCCC(=O)OC(CCCCCCCC)CCCCCCCC [Compound 121, Heptadecan-9-yl 8-((3-aminopropyl)(8-(nonyloxy)-8-oxooctyl)amino)octanoate] |  |  |  |  |  |  |  | 1.06E+06 p/s |  |
| CCCCCCCCCOC(=O)CCCCCCCN(C)CCCCCCCC(=O)OC(CCCCCCCC)CCCCCCCC [Compound 123, Heptadecan-9-yl 8-(methyl(8-(nonyloxy)-8-oxooctyl)amino)octanoate] |  |  |  |  | 2.50E+08 | 1.78E+06 | 4.04E+06 | 1.08E+07 p/s |  |

Continued, in another order:

| Size [1, 5] | Size [1, 6] | EE [2, 6] | EE [2, 5] | Compound | Total Flux, Liver (modified luciferase) | Total Flux, Lung (modified luciferase) | Total Flux, Spleen (modified luciferase) | Total flux 6 hours after intramuscular administration, 0.01 mpk Dose (luciferase (Luc) mRNA [3]) | other results |
| --- | --- | --- | --- | --- | --- | --- | --- | --- | --- |
| 104.1 nm |  |  |  | CCCCCCCCC(CCCCCCCC)OC(=O)CCCCCCCN(CCO)CCCCCC(=O)OC(CCCCCCCC)C1CC1 (centres unmarked) [Compound 128, Heptadecan-9-yl 8-((6-((1-cyclopropylnonyl)oxy)-6-oxohexyl)(2-hydroxyethyl)amino)octanoate] | 5.98E+09 | 2.16E+07 | 7.09E+07 |  | Size [1, 8]: 73.9 nm; Novel lipid/MC3 expression ratio, i.m. Luc (luciferase (Luc) mRNA [3]; luciferase): 0.99 |
| 98.8 nm |  |  | 97.37% | CCCCCCCCCOC(=O)CCCCCCCN(CCO)CCCCCCC(=O)OCC(CCCCCCCC)CCCCCCCC [Compound 143, Nonyl 8-((2-hydroxyethyl)(7-((2-octyldecyl)oxy)-7-oxoheptyl)amino)octanoate] | 1.76E+09 | 3.60E+07 | 1.42E+08 |  | Cytokine induction, IL-6 (IL-6, IP-10): 6.245; Cytokine induction, IP-10 (IL-6, IP-10): 209.63; Novel lipid/MC3 expression ratio, i.v. (luciferase (Luc) mRNA [4]): 0.44 |
|  | 95.5 nm | 93.9% |  | CCCCCCCCC(CCCCCCCC)OC(=O)CCCCCCCN(CCO)CCCCCCCCCC(=O)OCCCCCCC [Compound 189, Heptyl 10-((8-(heptadecan-9-yloxy)-8-oxooctyl)(2-hydroxyethyl)amino)decanoate] |  |  |  |  | [hEPO] Lipid/MC3 (hEPO mRNA): 3.01E+06 |
| 76.2 nm | 95.3 nm | 97.3% | 97.65% | CCCCCCCCCOC(=O)CCCCCCCN(CCCCCCCC(=O)OC(CCCCCCCC)CCCCCCCC)CCCN/C(=N/[N+](=O)[O-])NC [Compound 200, Heptadecan-9-yl (E)-8-((3-(3-methyl-2-nitroguanidino)propyl)(8-(nonyloxy)-8-oxooctyl)amino)octanoate] |  |  |  |  | hEPO AUC (hEPO mRNA): 2.4e+07 pg·h/mL; [hEPO] Lipid/MC3 (hEPO mRNA): 1.72E+06 |
|  | 150.3 nm | 76.3% |  | CCCCCCCCCOC(=O)CCCCCCCN(CCO)CCCCCC(=O)OC1CCC(CCCCC)CC1 (centres unmarked) [Compound 232, Nonyl 8-((2-hydroxyethyl)(6-oxo-6-((4-pentylcyclohexyl)oxy)hexyl)amino)octanoate] |  |  |  |  | [hEPO] Lipid/MC3 (hEPO mRNA): 0.83 |
| 66.9 nm | 93.7 nm | 97.6% | 97.81% | CCCCCCCCCOC(=O)CCCCCCCN(CCCCCCCC(=O)OC(CCCCCCCC)CCCCCCCC)CCCN/C(=N/S(C)(=O)=O)N(C)C [Compound 233, Heptadecan-9-yl (Z)-8-((3-(3,3-dimethyl-2-(methylsulfonyl)guanidino)propyl)(8-(nonyloxy)-8-oxooctyl)amino)octanoate] |  |  |  |  | Size [1, 7]: 87.0 nm; Novel lipid/MC3 expression ratio, i.m. Luc (luciferase (Luc) mRNA [3]; luciferase): 0.05 |
| 55.8 nm | 71.3 nm | 82.6% | 90.42% | CCCCCCCCCOC(=O)CCCCCCCN(CCCCCCCC(=O)OC(CCCCCCCC)CCCCCCCC)CCCC(=O)NC [Compound 239, Heptadecan-9-yl 8-((4-(methylamino)-4-oxobutyl)(8-(nonyloxy)-8-oxooctyl)amino)octanoate] |  |  |  |  | Novel lipid/MC3 expression ratio, i.m. Luc (luciferase (Luc) mRNA [3]; luciferase): 0.01 |
